The source of these data is patent US20220402900A1, “1,2,4-OXADIAZOL-5-ONE DERIVATIVES FOR THE TREATMENT OF CANCER” (Basilea Pharmaceutica International AG, priority 2019, published 2022).

The target in test [1] is T1, human TEAD2 (amino acids 217-447) (Homo sapiens, UniProt Q15562).
T1 construct: human TEAD2 (amino acids 217-447); His-tag (N); purchased Proteros biostructures PR-0365; host or cells: E. coli
Kind of test: Thermal shift assay (TSA). The test is classed as binding. To be noted: 3 μM recombinant TEAD2, compound 7 μM, shift vs DMSO control. The protocol: The thermal shift assay (TSA) was utilized to characterize target engagement in vitro based on ligand-dependent thermal stabilization of the protein. N-terminally His-tagged human TEAD2 (amino acids 217-447) expressed and purified from E. coli was purchased from Proteros biostructures (cat no. PR-0365). The melting reactions were performed in white, 96 well qPCR plates (Roche Diagnostics, cat. no. 04 729 692 001) in 20 mM HEPES pH 7, 100 mM NaCl in the presence of 4×SYPRO orange (Sigma, cat. no. S5692). Each well contained 3 μM recombinant TEAD2 and either DMSO (control) or experimental compounds at a final concentration of 7 μM. The total volume was 20 μL and the final DMSO concentration was 1%. The plate was sealed and analyzed in a LightCycler 480 II (Roche Diagnostics) by continuously reading the fluorescence using the 465-580 nm filter set while heating from 25° C. to 95° C. using a linear gradient of 1° C./min. Melting temperatures were determined by numerical differentiation using the LightCycler Thermal Shift Analysis software (Roche Diagnostics). The shifts in melting temperature caused by experimental compounds compared to the control are expressed as ΔTm (Table 2).

For test [2], the system named is TEAD-dependent PD marker CTGF. As to the kind of experiment: MSTO-211H tumor xenograft pharmacodynamic (PD) study. Type of test: in vivo, mice. The protocol: Female CB. 17 SCID mice (Charles River) were subcutaneously inoculated with 5×10^6 MSTO-211H tumor cells (ATCC, CRL-2081) in 0.1 mL of PBS mixed with matrigel (1:1) (BD Biosciences). Randomization into two groups was performed when the mean tumor size reached approximately 300-400 mm^3, after which drug treatments were started.
Animals were dosed daily orally at the specified concentrations of the compound of Example 2 or the compound of Example 11 using an oral-gavage needle. The dosing volume was 10 mL/kg per mouse, with a volume adjusted to the mouse body weight. The vehicle control (water containing 0.5% hydroxypropyl methyl cellulose (Sigma-Aldrich, #H9262) and 0.5% Tween 80 (Sigma-Aldrich, #P1754)) was administered in the same way.
PD marker analysis was performed on tumors that were collected from animals 3 hours after the last dose was given. […] The tumor protein lysates were prepared and analyzed using standard Western blot procedures. […] For quantitative PCR (qPCR) analyses, RNA was converted into cDNA following manufacturer's instructions (SuperScript™ III First-Strand Synthesis for RT-PCR, Invitrogen, #18080-051). […] The increase in fluorescence was analyzed with the instrument-specific software (Roche, LightCycler® 480 II), and a mean quantity was calculated from duplicate or triplicate PCRs for each sample using the ΔΔCt method.

Test [3] relates to TEAD reporter gene activity. As to the kind of experiment: TEAD reporter gene assay (MCF7 TEAD reporter cell line). Type of test: cell-based. To be noted: Homo sapiens; TEAD luciferase reporter in MCF7 cells, 24 hours; read-out: IC50 TEAD RGA (converted). The source says: A TEAD reporter cell line was purchased from BPS Bioscience (cat. no. 60618). It contains the firefly luciferase gene under control of TEAD responsive elements stably integrated into the human breast cancer MCF7 cells. In proliferating cells, a basal level of unphosphorylated YAP/TAZ resides in the nucleus and drives the TEAD-dependent expression of the luciferase reporter. The cells were cultivated as recommended by the supplier. Inhibition of TEAD reporter gene activity by experimental compounds was measured using white, clear-bottom, 96 well cell culture plates (Greiner Bio-One, cat. no. 655098). The cells were seeded at a density of 20,000 cells per well in 100 μL growth medium and the plates were incubated overnight at 37° C. with 5% CO2 prior to treatment. Experimental compounds were serially diluted in DMSO to 200× the desired final concentrations. 0.5 μL aliquots of DMSO or the test samples were then mixed into the wells and the cells were further incubated for 24 hours. Luminescence was then measured on a Synergy 4 reader (BioTek) using the ONE-Glo Luciferase Assay System (Promega, cat. no. E6120) according to the manufacturer's instructions. Relative inhibition values were calculated by normalizing the raw data using DMSO-treated cells (0% inhibition) and wells devoid of cells (100% inhibition). IC50 values were calculated by fitting concentration-response data to a sigmoidal 4-parameter logistic model.
In general terms: In a reporter assay the amount or activity of a reporter protein is the signal.

The test system of test [4] is NCI-H226 xenografts. As to the kind of experiment: NCI-H226 tumor xenograft efficacy study. Type of test: in vivo. To be noted: day 62, NCI-H226 xenografts in BALB/c nude mice. Here is the method: Female BALB/c nude mice (GemPharmatech Co., Ltd) were subcutaneously inoculated with 10×10^6 NCI-H226 tumor cells (ATCC, CRL-5826) in 0.2 mL of PBS mixed with matrigel (1:1) (Corning). Randomization into six groups (n=8 animals per group) was performed when the mean tumor size reached approximately 150 (100-200) mm^3, after which drug treatments were started. Animals were dosed daily orally at the specified concentrations using an oral-gavage needle. The dosing volume was 10 mL/kg per mouse, with a volume adjusted to the mouse body weight. The vehicle control (water containing 0.5% hydroxypropyl methyl cellulose (Sigma-Aldrich, #H3785) and 0.5% Tween 80 (Sigma-Aldrich, #P1754) was administered in the same way. Tumor volumes were measured twice weekly in two dimensions using a caliper, and the volume was expressed in mm^3 using the formula “V=(L×W^2)/2”, where V is the tumor volume, L is the tumor length (the longest tumor dimension) and W is the tumor width (the longest tumor dimension perpendicular to L).
Animal protocols were reviewed and approved by the Institutional Animal Care and Use Committee (IACUC) at CrownBio. During the study, the care and use of animals was conducted in accordance with the regulations of the Association for Assessment and Accreditation of Laboratory Animal Care (AAALAC).

T1 sequence (Q15562 217-447): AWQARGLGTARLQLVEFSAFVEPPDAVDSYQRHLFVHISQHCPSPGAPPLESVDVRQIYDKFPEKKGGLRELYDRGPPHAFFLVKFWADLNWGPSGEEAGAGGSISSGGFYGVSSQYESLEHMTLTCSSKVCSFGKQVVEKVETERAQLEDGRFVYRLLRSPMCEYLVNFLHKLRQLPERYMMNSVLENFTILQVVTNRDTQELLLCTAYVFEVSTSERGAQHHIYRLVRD

As a reminder, the ΔTm is the change in melting temperature against a reference sample. In general, IC50 refers to the concentration at which inhibition is half-maximal. In the case of `O=c1[nH]c(-c2nccnc2Nc2ccc(C(F)(F)F)cc2)no1` [Example 2, 3-[3-[4-(trifluoromethyl)anilino]pyrazin-2-yl]-4H-1,2,4-oxadiazol-5-one], the ΔTm at 7 µM in test [1] worked out at 10.6 °C. Further, the “decrease of CTGF mRNA to (normalized to actin mRNA)” value in test [2] (250 mg/kg po qd×8, MSTO-211H tumors isolated 3 hours after last dose) amounted to 28%. Moreover, the IC50 in test [3] is 41 nM. For the same compound, the “final ΔT/C” value stood at 0.27 in test [4] (50 mg/kg po qd), 0.13 in test [4] (125 mg/kg po qd) and 0.017 in test [4] (250 mg/kg po qd).
With `O=c1[nH]c(-c2c(OCCN3CCOCC3)ccnc2Nc2ccc(C(F)(F)F)cc2)no1` [Example 60, 3-[4-(2-morpholinoethoxy)-2-[4-(trifluoromethyl)anilino]-3-pyridyl]-4H-1,2,4-oxadiazol-5-one], the ΔTm at 7 µM in test [1] was determined as 1.3 °C. The half-maximal inhibitory concentration (IC50) in test [3] was 465 nM.
With `Cc1cnc(-c2noc(=O)[nH]2)c(Nc2ccc(C(F)(F)F)cc2)n1` [Example 31, 3-[5-methyl-3-[4-(trifluoromethyl)anilino]pyrazin-2-yl]-4H-1,2,4-oxadiazol-5-one], the ΔTm at 7 µM in test [1] was 10.5 °C. Further, in test [3], the IC50 is 35 nM.
Consider `O=c1[nH]c(-c2nccnc2Nc2ccc(C(F)(F)F)c(F)c2)no1` [Example 19, 3-[3-[3-fluoro-4-(trifluoromethyl)anilino]pyrazin-2-yl]-4H-1,2,4-oxadiazol-5-one], for which the ΔTm at 7 µM in test [1] was found to be 10.1 °C. Moreover, the IC50 in test [3] was 131 nM.
As for `COc1cnc(-c2noc(=O)[nH]2)c(Nc2ccc(C(F)(F)F)cc2)n1` [Example 12, 3-[5-methoxy-3-[4-(trifluoromethyl)anilino]pyrazin-2-yl]-4H-1,2,4-oxadiazol-5-one], the ΔTm at 7 µM in test [1] was determined as 7.5 °C. The IC50 in test [3] was 44 nM.
For `Cc1cc(-c2noc(=O)[nH]2)c(Nc2ccc(C(F)(F)F)cc2)nc1C` [Example 47, 3-[5,6-dimethyl-2-[4-(trifluoromethyl)anilino]-3-pyridyl]-4H-1,2,4-oxadiazol-5-one], the ΔTm at 7 µM in test [1] was 18 °C. In test [3], the IC50 is 72 nM.
On to `Nc1cc(C(F)(F)F)ccc1Nc1nccnc1-c1noc(=O)[nH]1` [Example 34, 3-[3-[2-amino-4-(trifluoromethyl)anilino]pyrazin-2-yl]-4H-1,2,4-oxadiazol-5-one], for which, in test [1], the ΔTm at 7 µM is 0.4 °C. For the same compound, in test [3], the IC50 was 2120 nM.
For the compound `CC1(COc2ccnc(Nc3ccc(C(F)(F)F)cc3)c2-c2noc(=O)[nH]2)CC1` [Example 63, 3-[4-[(1-methylcyclopropyl)methoxy]-2-[4-(trifluoromethyl)anilino]-3-pyridyl]-4H-1,2,4-oxadiazol-5-one], the ΔTm at 7 µM in test [1] was 3.4 °C. Besides, in test [3], the IC50 is 1550 nM.
For the compound `O=c1[nH]c(-c2c(OCCO)ccnc2Nc2ccc(Cl)cc2)no1` [Example 48, 3-[2-(4-chloroanilino)-4-(2-hydroxyethoxy)-3-pyridyl]-4H-1,2,4-oxadiazol-5-one], in test [1], the ΔTm at 7 µM was found to be 1.9 °C. The IC50 in test [3] is 507 nM.
For `COc1ccnc(Nc2ccc(C(F)(F)F)cc2)c1-c1noc(=O)[nH]1` [Example 11, 3-[4-methoxy-2-[4-(trifluoromethyl)anilino]-3-pyridyl]-4H-1,2,4-oxadiazol-5-one], the ΔTm at 7 µM in test [1] amounted to 6.7 °C. The “decrease of CTGF mRNA to (normalized to actin mRNA)” value in test [2] (250 mg/kg po qd×5, MSTO-211H tumors isolated 3 hours after last dose) came out at 32%. For the same compound, the IC50 in test [3] is 39 nM.
On to `Nc1cc(Nc2nccnc2-c2noc(=O)[nH]2)ccc1C(F)(F)F` [Example 33, 3-[3-[3-amino-4-(trifluoromethyl)anilino]pyrazin-2-yl]-4H-1,2,4-oxadiazol-5-one], for which the ΔTm at 7 µM in test [1] amounted to 3.6 °C. In addition, in test [3], the IC50 is 127 nM.
